According to patent US20080102121A1 (Elan Pharma International Limited, priority 1998, published 2008):
Structures can show the parent of a compound that is named as a salt.

Assays:
[1] = cited from earlier work
[2] = 10 mg oral dose, five adult males; cited from earlier work
[3] = Hydrocodone simulations (one-compartment model); settings: estimated from non-compartmental parameters
Description: Studies of hydrocodone formulations of the present invention were conducted to simulate the profiles associated with twice-daily administration hydrocodone for both single dose and steady state. […] Non-compartmental parameters were used to find estimates of the unit input response and a one-compartment model was assumed for all simulations.
For the absorption rate constant k01, several profiles were simulated using different estimates of k01.
Options 1 and 2 assumed a first order release and option 3 a zero-order release.

[4] = in vivo; cited from earlier work
[5] = in vivo; cited from earlier work; remark: listed apart in the source

Compound: 4-hydroxy-2-methyl-N-(5-methyl-2-thiazolyl)-2-H-1,2-benzothiazine-3-carboxamide 1,1-dioxide [Meloxicam]
- time of second meloxicam concentration peak ([1]; fasted steady state conditions, post-dose): twelve to fourteen
- bioavailability ([1]; single 30 mg oral dose compared to 30 mg intravenous bolus injection): 89%

Compound: COc1ccc2c3c1OC1C(=O)CCC4C(C2)N(C)CC[C@]314 (stereo partly drawn) [Hydrocodone, 4,5a-Epoxy-3-methoxy-1 7-methylmorphinan-6-one tartrate (1:1) hydrate (2:5)]
- Cmax [2]: 23.6 ± 5.2 ng/mL
- Thalf [2]: 3.8 ± 0.3 h
- Tmax [2]: 1.3 ± 0.3 h
- K10 [3]: 0.18
- V/f [3]: 334.29 L
- half life [4]: 4 to 8 h

Compound: CC(=O)Nc1ccc(O)cc1 [acetaminophen]
- doses reported as fatal [5]: 15,000-20,0000 milligrams a day
